{"source": "patent EP3727588B1", "about": "“ACTIVATOR PEPTIDES OF THE ENZYME ADAM 10 AND RELATED USES IN THE TREATMENT OF ALZHEIMER'S DISEASE” (UNIVERSITA' DEGLI STUDI DI MILANO, priority 2017, dated 2019)", "key": {"[1]": {"system": "dendritic spines of the hippocampal neurons", "assay": "dendritic spine morphology and density in hippocampus, C57BL/6 mice", "format": "in vivo", "conditions": "14 days' treatment", "protocol": "(§1) C57/BL6 adult mice were treated for 14 days with daily intraperitoneal injection of saline solution or peptides at a dose of 3 nmol/g (6-10 animals per experimental group). The animals were maintained in an enclosure at 25 ± 2 °C with an alternating light/dark cycle of 12 hours and had free access to water and food in the form of pellets (standard diet).\nFor the dendritic spine analysis, the protocol used is the one previously described by Kim et al, and envisages the use of DilDye lipophilic tracer (Invitrogen) to allow the dendritic spines to be viewed under the confocal microscope. The analysis of the dimensions and morphology of the spines was performed with ImageJ software.\nThe spines were classified, based on their morphology, into three different categories: thin, stubby (without a well-defined \"neck\") and mushroom shaped. To evaluate the possible effect induced by PEP3 on the spine morphology, two animals for each experimental group were perfused after 14 days of treatment and the brain was post-fixed in PFA and cut with a vibratome. To view the dendritic spines the lipophilic tracer DilDye was used. From the images acquired from the confocal microscope the number, length and width of the head of the dendritic spines of the hippocampal neurons were measured."}, "[2]": {"assay": "Novel Object Recognition Test (NORT), C57BL/6 mice", "format": "in vivo", "conditions": "14 days' treatment", "protocol": "as §1\nAfter 14 days of treatment the animals were subjected to the Novel Object Recognition Test (NORT). Such test is structured in three phases: habituation, familiarization and testing. In the first phase, the animal is placed in an empty arena and left free to explore the environment for 5 minutes. The day after, during the familiarization phase, the animal is placed in the same arena in the presence of two objects, identical in shape and size, for 10 minutes. Then the time spent by the animal exploring the individual object is recorded. On the third day, the animal is placed in the area in the presence of an identical object to that used in the familiarization phase and a new one. In this phase the difference in time spent by the animal exploring the familiar object and the new object is evaluated. […] In both phases of the test, the objects are positioned symmetrically and opposite inside the arena, and all the sessions are recorded with the aid of a video camera. […]"}, "[3]": {"assay": "body weight and food intake during 14 days' treatment", "format": "in vivo", "conditions": "C57BL/6 mice, daily intraperitoneal 3 nmol/g", "protocol": "as §1\nFor the entire duration of the treatment, on a daily basis, the weight and food intake of each animal were monitored and recorded, in order to evaluate any changes caused by the treatment. 24 hours after the last injection the mice were anaesthetized, and then the blood was taken through cardiac puncture, whereas the brain and liver of the animal were rapidly dissected to perform biochemical or immunohistological analyses.\nThe body weight and food intake were monitored and recorded on a daily basis."}, "[4]": {"assay": "blood count and platelet count after 14 days' treatment", "format": "in vivo, mice", "parameters": "key to Aggregate s: +, ++, +++ considering the presence of platelet aggregates detected in the blood smear that make the analysis difficult; +, ++, +++ considering the presence of platelet aggregates detected in the blood smear that make the analysis difficult; +, ++, +++ considering the presence of platelet aggregates detected in the blood smear that make the analysis difficult; key to Estimate Plt: A= appropriate platelet estimate", "protocol": "as §1\n(§2) The blood, collected through cardiac puncture, was analysed with a laser counter (ADVIA 120, Siemens) using specific software for the murine species. From each sample a blood smear was prepared, stained with the May Grünwald-Giemsa method, and used for the morphological analysis of the leukocytes, the red blood cells and the platelet estimate. After the automatic counting of the cells and the preparation of the smear, all the samples were centrifuged and the plasma was transferred into separate test tubes. The analysis of the plasma samples was performed through automatic spectrophotometer (ILAB-300, Instrumentation Laboratory). All the results were compared with the values provided by the company Charles River for mice of the same strain and age.\nThe range values are provided by Charles River for C57BL mice aged between 56-70 days, whose blood was collected by cardiac puncture after euthanasia."}, "[5]": {"assay": "leukogram (white blood cell count) after 14 days' treatment", "format": "in vivo, mice", "protocol": "as §1, §2\nExcept for the basophils and eosinophils, the total count and white blood cell (WBC) differential is lower with respect to the range values in all the animals treated. However, we noticed that the reference range values provided by the company Charles River are particularly high with respect to other values provided for other control groups and in other scientific articles in which the same animal strain is analysed. Justification for these differences found is provided by the pre-analytical factors used by Charles River in determining the different reference ranges (such as the method used, the type of sampling used, etc.). Despite this, the analyses of the data performed both individually and by examining the mean and median values in the different groups, show some differences in the values referring to mice treated with the active peptide with respect to the control mice (Table 2).\nThe following Table 2 illustrates the results of the white blood cell count. The reference values are provided by Charles River for C57BL mice of 56-70 days."}, "[6]": {"system": "GFAP and Iba-1 positive cells", "assay": "neuro-inflammation: GFAP and Iba-1 positive cells in hippocampus", "format": "in vivo, mice", "conditions": "5 fields, 14 days' treatment", "protocol": "as §1\nAfter the sacrifice of the treated animal, a portion of liver and a brain hemisphere were fixed in 10% formalin for 48 hours, and included in paraffin. From each block of paraffin, serial sections 5/6µm thick were obtained. The sections were then stained with haematoxylin-eosin or processed through immunohistochemistry.\nSubsequently, to evaluate the presence of neuro-inflammation, 5 different fields of the hippocampus were considered to verify any presence of GFAP and Iba-1 positive cells."}, "[7]": {"conditions": "individual animal, 14 days, daily intraperitoneal 3 nmol/g"}}, "note": "Values joined by “and” are separate entries in the source; they are usually repeats but may differ in a detail not shown here. Equal entries are not always repeated. Peptide text beside a SMILES is read from it.", "data": [{"smiles": "N=C(N)NCCC[C@H](NC(=O)CNC(=O)[C@@H](N)Cc1ccc(O)cc1)C(=O)N[C@@H](CCCCN)C(=O)N[C@@H](CCCCN)C(=O)N[C@@H](CCCNC(=N)N)C(=O)N[C@@H](CCCNC(=N)N)C(=O)N[C@@H](CCC(N)=O)C(=O)N[C@@H](CCCNC(=N)N)C(=O)N[C@@H](CCCNC(=N)N)C(=O)N[C@@H](CCCNC(=N)N)C(=O)NCC(=O)NCC(=O)N[C@@H](CO)C(=O)NCC(=O)N[C@@H](CCC(N)=O)C(=O)N1CCC[C@H]1C(=O)N1CCC[C@H]1C(=O)N[C@@H](CCC(=O)O)C(=O)N[C@@H](CCC(N)=O)C(=O)N[C@@H](CCC(=O)O)C(=O)N1CCC[C@H]1C(=O)N[C@@H](CCCNC(=N)N)C(=O)NCC(=O)O", "note": "[inPEP3, reference compound] (H-YGRKKRRQRRRGGSGQPPEQEPRG-OH)", "values": [{"measurement": "density of the dendritic spines", "setting": "[1]", "result": "10.15±1.05 n. of spines/10µm"}, {"measurement": "length of mushroom shaped spines", "setting": "[1]", "result": "0.85±0.04"}, {"measurement": "length of the spines", "setting": "[1]", "result": "0.83±0.02", "unit": "µm"}, {"measurement": "percentage of mushroom shaped spines", "setting": "[1]", "result": "30.81 ± 1.78", "unit": "%"}, {"measurement": "percentage of stubby spines", "setting": "[1]", "result": "42.78 ± 1.86", "unit": "%"}, {"measurement": "percentage of thin spines", "setting": "[1]", "result": "26.41 ± 1.42", "unit": "%"}, {"measurement": "width of the head of spines", "setting": "[1]", "result": "0.79±0.02", "unit": "µm"}, {"measurement": "time exploring the new object", "setting": "[2]", "result": "59.24 ± 4.58", "unit": "%"}, {"measurement": "food intake (ratio daily food intake / mean body weight)", "setting": "[3]", "result": "99.03±2.03", "unit": "%"}, {"measurement": "(Ht)", "setting": "[4]; group mean", "result": 48.6, "unit": "%"}, {"measurement": "Hb", "setting": "[4]; group mean", "result": 12.3, "unit": "g/dL"}, {"measurement": "Mean Corpuscula r Hb (MCH)", "setting": "[4]; group mean", "result": 13.4, "unit": "pg"}, {"measurement": "Mean Corpuscula r Hb Conc. MCHC", "setting": "[4]; group mean", "result": 25.3, "unit": "%"}, {"measurement": "Platelet count", "setting": "[4]; group mean", "result": 661000, "unit": "µL⁻¹"}, {"measurement": "Red blood cells", "setting": "[4]; group mean", "result": "9.16e+06", "unit": "µL⁻¹"}, {"measurement": "Red cell distribution width (RDW)", "setting": "[4]; group mean", "result": 20.7, "unit": "%"}, {"measurement": "Vol. Mean Corp. Vol. (MCV)", "setting": "[4]; group mean", "result": 53.1, "unit": "fL"}, {"measurement": "(Ht)", "setting": "[4]; group median", "result": -48.4, "unit": "%"}, {"measurement": "Hb", "setting": "[4]; group median", "result": -12.3, "unit": "g/dL"}, {"measurement": "Platelet count", "setting": "[4]; group median", "result": -659000, "unit": "µL⁻¹"}, {"measurement": "Red blood cells", "setting": "[4]; group median", "result": "-9.13e+06", "unit": "µL⁻¹"}, {"measurement": "Red cell distribution width (RDW)", "setting": "[4]; group median", "result": -20.5, "unit": "%"}, {"measurement": "Vol. Mean Corp. Vol. (MCV)", "setting": "[4]; group median", "result": -53.1, "unit": "fL"}, {"measurement": "Estimate Plt", "setting": "[4]; individual animal, blood smear, first part of cell", "result": "A"}, {"measurement": "Aggregate s", "setting": "[4]; individual animal, blood smear, second part of cell", "result": "+++"}, {"measurement": "(Ht)", "setting": "[4]; [7]", "result": "50.1% and 49.5% and 47.8% and 48.7% and 48% and 47.3%"}, {"measurement": "Hb", "setting": "[4]; [7]", "result": "12.6 g/dL (2×) and 12 g/dL (2×) and 12.4 g/dL and 12.1 g/dL"}, {"measurement": "Mean Corpuscula r Hb (MCH)", "setting": "[4]; [7]", "result": "13.5 Pg (3×) and 13.3 Pg and 13.4 Pg (2×)"}, {"measurement": "Mean Corpuscula r Hb Conc. MCHC", "setting": "[4]; [7]", "result": "25.1% (2×) and 25.5% (2×) and 25.2% and 25.4%"}, {"measurement": "Platelet count", "setting": "[4]; [7]", "result": "522000 µL⁻¹ and 661000 µL⁻¹ and 656000 µL⁻¹ and 341000 µL⁻¹ and 998000 µL⁻¹ and 790000 µL⁻¹"}, {"measurement": "Red blood cells", "setting": "[4]; [7]", "result": "9.36e+06 µL⁻¹ and 9.34e+06 µL⁻¹ and 9.01e+06 µL⁻¹ and 9.21e+06 µL⁻¹ and 9.04e+06 µL⁻¹ and 8.97e+06 µL⁻¹"}, {"measurement": "Red cell distribution width (RDW)", "setting": "[4]; [7]", "result": "20.4% and 20.6% and 21.4% and 21.8% and 19.6% and 20.1%"}, {"measurement": "Vol. Mean Corp. Vol. (MCV)", "setting": "[4]; [7]", "result": "53.5 fL and 53 fL and 53.1 fL (2×) and 52.9 fL and 52.7 fL"}, {"measurement": "Basophils", "setting": "[5]; group mean", "result": 0, "unit": "µL⁻¹"}, {"measurement": "Eosinophils", "setting": "[5]; group mean", "result": 39.9, "unit": "µL⁻¹"}, {"measurement": "Lymphocytes", "setting": "[5]; group mean", "result": 1935.9, "unit": "µL⁻¹"}, {"measurement": "Monocytes", "setting": "[5]; group mean", "result": 137.1, "unit": "µL⁻¹"}, {"measurement": "Neutrophils", "setting": "[5]; group mean", "result": 990.5, "unit": "µL⁻¹"}, {"measurement": "White blood cells", "setting": "[5]; group mean", "result": 3103.3, "unit": "µL⁻¹"}, {"measurement": "Basophils", "setting": "[5]; group median", "result": 0, "unit": "µL⁻¹"}, {"measurement": "Eosinophils", "setting": "[5]; group median", "result": "(-0.0378). x10^3/µL"}, {"measurement": "Lymphocytes", "setting": "[5]; group median", "result": "(-1.837). x10^3/µL"}, {"measurement": "Monocytes", "setting": "[5]; group median", "result": "(-0.0918). x10^3/µL"}, {"measurement": "Neutrophils", "setting": "[5]; group median", "result": "(-0.2468). x10^3/µL"}, {"measurement": "White blood cells", "setting": "[5]; group median", "result": "(-2.295). x10^3/µL"}, {"measurement": "Basophils", "setting": "[5]; [7]", "result": 0, "unit": "µL⁻¹"}, {"measurement": "Eosinophils", "setting": "[5]; [7]", "result": "26.1 µL⁻¹ and 31 µL⁻¹ and 44.8 µL⁻¹ and 62 µL⁻¹ and 36 µL⁻¹ and 39.6 µL⁻¹"}, {"measurement": "Lymphocytes", "setting": "[5]; [7]", "result": "2218.5 µL⁻¹ and 1271 µL⁻¹ and 1971.2 µL⁻¹ and 2976 µL⁻¹ and 1476 µL⁻¹ and 1702.8 µL⁻¹"}, {"measurement": "Monocytes", "setting": "[5]; [7]", "result": "104.4 µL⁻¹ and 15.5 µL⁻¹ and 179.2 µL⁻¹ and 372 µL⁻¹ and 72 µL⁻¹ and 79.2 µL⁻¹"}, {"measurement": "Neutrophils", "setting": "[5]; [7]", "result": "261 µL⁻¹ and 232.5 µL⁻¹ and 2284.8 µL⁻¹ and 2790 µL⁻¹ and 216 µL⁻¹ and 158.4 µL⁻¹"}, {"measurement": "White blood cells", "setting": "[5]; [7]", "result": "2610 µL⁻¹ and 1550 µL⁻¹ and 4480 µL⁻¹ and 6200 µL⁻¹ and 1800 µL⁻¹ and 1980 µL⁻¹"}, {"measurement": "number of GFAP positive cells", "setting": "[6]", "result": "31.67±1.12"}, {"measurement": "number of Iba-1 positive cells", "setting": "[6]", "result": "8.50±0.43"}]}]}
